In patent US20040122109A1, “Preparation for hair and/or scalp” (priority 2001, published 2004):

Legend:
C3H mice = assay: Hair restoration test: hair growth score on the shaved back of C3H mice; format: in vivo, mouse; settings: for Hair growth score of C3H mouse, before application: 7-week old male C3H mice in telogen, shaved back, baseline, score 1-5 (1 = skin pink, 5 = hair growth in 60% or more); for Hair growth score of C3H mouse, before application / Hair growth score of C3H mouse, after application: n = 7, Average ± S.D.; for Hair growth score of C3H mouse, after application: 10% in PEG1000 applied to shaved portion once a day, total of 14 times, score 1-5 (higher = more hair growth); for Hair restoration activity (in words): C3H mice, 10% in PEG1000, 14 applications
Source text: The back of each of 7-week old male C3H mice in the telogen period of the hair cycle was carefully shaved, and then groups of seven mice each without wounds at the backs were subjected to a test. In a control group, only polyethylene glycol 1000 (PEG1000) used as a base was applied to each mouse, while in an evaluation group, 10% oxidized coenzyme Q10 or 10% reduced coenzyme Q10 (reduced coenzyme Q10:oxidized coenzyme Q10=95:5) was applied to the shaved portion once a day (total of 14 times). After the application, the back of each mouse was evaluated based on the scores below to evaluate the hair restoration activity of a compound.
2; Less than 30% of the shaved portion was discolored to gray.

hairless rats = assay: Prevention of hair removal: hair removal score of hairless rats; format: in vivo, rat; settings: for Hair removal score of hairless rat, before application: 4-week old male hairless rats in pilose period, baseline, score 1-5 (1 = no hair removal, 5 = hair removal in 60% or more); for Hair removal score of hairless rat, before application / Hair removal score of hairless rat, 71 days after: n = 5, Average ± S.D.; for Hair removal score of hairless rat, 71 days after: 10% in PEG1000 applied to back once a day for 12 days, 71st day after application was terminated, score 1-5 (lower = less hair removal); for Activity of preventing hair removal (in words): hairless rats, 10% in PEG1000, once a day for 12 days
Source text: 4-week old male hairless rats in the pilose period were used for evaluating the activity of preventing hair removal. The same samples as those used in Example 1 were used. In each group of five hairless rats, each of the samples was applied to the back of each rat once a day for 12 days, and then a hair removal state was observed after the application was stopped. The hair removal state was observed based on the following scores.
1; No hair removal was observed.
2; Hair became short in 30% or less of the applied region.

SMILES	Hair growth score of C3H mouse, before application (C3H mice)	Hair growth score of C3H mouse, after application (C3H mice)	Hair restoration activity (in words) (C3H mice)	Hair removal score of hairless rat, before application (hairless rats)	Hair removal score of hairless rat, 71 days after (hairless rats)	Activity of preventing hair removal (in words) (hairless rats)
COc1c(O)c(C)c(C/C=C(\C)CC/C=C(\C)CC/C=C(\C)CC/C=C(\C)CC/C=C(\C)CC/C=C(\C)CC/C=C(\C)CC/C=C(\C)CC/C=C(\C)CCC=C(C)C)c(O)c1OC [Reduced coenzyme Q10, reduced coenzyme Q10]	1.0 ± 0.00	3.2 ± 0.64	a higher hair restoration activity was observed	1.0 ± 0.00	3.0 ± 0.71	has the activity of preventing hair removal
COC1=C(OC)C(=O)C(C/C=C(\C)CC/C=C(\C)CC/C=C(\C)CC/C=C(\C)CC/C=C(\C)CC/C=C(\C)CC/C=C(\C)CC/C=C(\C)CC/C=C(\C)CCC=C(C)C)=C(C)C1=O [Oxidized coenzyme Q10, oxidized coenzyme Q10]	1.0 ± 0.00	2.7 ± 0.35	a hair restoration activity was observed	1.0 ± 0.00	3.6 ± 0.24	has the activity of preventing hair removal
